ChEMBL document CHEMBL4732033, “New prodrugs and analogs of the phenazine 5,10-dioxide natural products iodinin and myxin promote selective cytotoxicity towards human acute myeloid leukemia cells” (RSC Med Chem, 2021)

Legend:
H9c2 [1] = assay: Cytotoxicity against rat H9c2 cells assessed as reduction in cell viability incubated for 24 hrs under 19% O2 condition by WST-1 assay; type: cell-based; settings: H9c2, 24 h
NRK [2] = assay: Cytotoxicity against rat NRK cells assessed as reduction in cell viability incubated for 24 hrs under 19% O2 condition by WST-1 assay; type: cell-based
NRK [3] = assay: Cytotoxicity against rat NRK cells assessed as reduction in cell viability incubated for 24 hrs under 2% O2 condition by WST-1 assay; type: cell-based
MOLM-13 [4] = assay: Cytotoxicity against human MOLM13 cells assessed as reduction in cell viability incubated for 24 hrs under 2% O2 condition by WST-1 assay; type: functional, cell-based; settings: MOLM-13, 24 h
MOLM-13 [5] = assay: Cytotoxicity against human MOLM13 cells assessed as reduction in cell viability incubated for 24 hrs under 19% O2 condition by WST-1 assay; type: functional, cell-based; settings: MOLM-13, 24 h
[6] = Selectivity index, ratio of EC50 for rat NRK cells to EC50 for human MOLM13 cells under 19% O2 condition; type: toxicity; settings: NRK cells versus MOLM13 cells, read-out: Ratio EC50
[7] = Selectivity index, ratio of EC50 for rat NRK cells to EC50 for human MOLM13 cells under 2% O2 condition; type: toxicity; settings: NRK cells versus MOLM13 cells, read-out: Ratio EC50
[8] = Selectivity index, ratio of EC50 for rat H9c2 cells to EC50 for human MOLM13 cells; type: toxicity; settings: H9c2 cells versus MOLM13 cells, read-out: Ratio EC50
[9] = Selectivity index, ratio of EC50 for rat NRK cells to EC50 for human MOLM13 cells; type: toxicity; settings: NRK cells versus MOLM13 cells, read-out: Ratio EC50
[10] = Solubility of the compound in DMSO; type: physicochemical
NRK [11] = assay: Cytotoxicity against rat NRK cells assessed as reduction in cell viability incubated for 24 hrs under 2% O2 condition by Hoechst 33342 staining based microscopic analysis
H9c2 [12] = assay: Cytotoxicity against rat H9c2 cells assessed as reduction in cell viability incubated for 24 hrs under 19% O2 condition by Hoechst 33342 staining based microscopic analysis; settings: H9c2, 24 h
NRK [13] = assay: Cytotoxicity against rat NRK cells assessed as reduction in cell viability incubated for 24 hrs under 19% O2 condition by Hoechst 33342 staining based microscopic analysis

SMILES | EC50 (H9c2 [1]) | EC50 (NRK [2]) | EC50 (NRK [3]) | EC50 (MOLM-13 [4]) | EC50 (MOLM-13 [5]) | selectivity ratio [6] | selectivity ratio [7] | selectivity ratio [8] | selectivity ratio [9] | solubility [10] | EC50 (NRK [11]) | EC50 (H9c2 [12]) | EC50 (NRK [13])
[O-][n+]1c2cccc(O)c2[n+]([O-])c2cccc(O)c21 | > 50 µM | > 50 µM | > 50 µM |  |  |  |  |  |  |  |  |  | 
CCOC(=O)COc1cccc2c1[n+]([O-])c1cccc(O)c1[n+]2[O-] | 15 µM | 12 µM | 18 µM |  |  |  |  |  |  |  |  |  | 
COc1cccc2c1[n+]([O-])c1cccc(O)c1[n+]2[O-] | 46 µM | 77 µM | 76 µM |  |  |  |  |  |  |  |  |  | 
CCN(CC)C(=O)COc1cccc2c1[n+]([O-])c1cc(C)c(C)cc1[n+]2[O-] | 41 µM | 21 µM | 52 µM | 3.4 µM | 1.8 µM |  |  |  |  |  |  |  | 
CCOC(=O)COc1cccc2c1[n+]([O-])c1cc(Br)c(Br)cc1[n+]2[O-] | 3.3 µM | 10 µM | 9.7 µM | 1.6 µM | 2.4 µM |  |  |  |  |  |  |  | 
Cc1cc2c(cc1C)[n+]([O-])c1c(O)cccc1[n+]2[O-] | > 50 µM | > 50 µM | > 50 µM | 2.3 µM | 2.8 µM |  |  |  |  |  |  |  | 
CC(C)(C)OC(=O)COc1cccc2c1[n+]([O-])c1ccccc1[n+]2[O-] | 20 µM | 26 µM | 25 µM | 1.9 µM | 2.2 µM |  |  |  |  |  |  |  | 
CN1CCN(C(=O)Oc2cccc3c2[n+]([O-])c2cc(Cl)c(Cl)cc2[n+]3[O-])CC1 | 3.2 µM | 11 µM | 15 µM | 0.32 µM | 0.34 µM | > 30 | 45 |  |  |  |  |  | 
Cc1cc2c(cc1C)[n+]([O-])c1c(OC(=O)N3CCCC3)cccc1[n+]2[O-] | 8.7 µM | 6.6 µM | 8.9 µM | 0.78 µM | 1.5 µM |  |  |  |  |  |  |  | 
CCOC(=O)Oc1cccc2c1[n+]([O-])c1cccc(OC(=O)OCC)c1[n+]2[O-] | > 25 µM | > 25 µM | > 25 µM | 4 µM | 6.1 µM |  |  |  |  |  |  |  | 
CN1CCN(C(=O)Oc2cccc3c2[n+]([O-])c2cccc(O)c2[n+]3[O-])CC1 | 100 µM | 53 µM | 59 µM | 1.4 µM | 1.5 µM |  |  | > 15 | > 15 |  |  |  | 
Cc1cc2c(cc1C)[n+]([O-])c1c(OC(=O)N3CCN(C)CC3)cccc1[n+]2[O-] | 9.4 µM | 12 µM | 13 µM | 0.54 µM | 0.63 µM |  |  |  |  |  |  |  | 
CN1CCN(C(=O)Oc2cccc3c2[n+]([O-])c2cc4ccccc4cc2[n+]3[O-])CC1 | 2.3 µM | 2 µM | 7.5 µM | 1.8 µM | 2.8 µM |  |  |  |  |  |  |  | 
CN1CCN(C(=O)Oc2cccc3c2[n+]([O-])c2cc(Br)c(Br)cc2[n+]3[O-])CC1 | 2.2 µM | 6.2 µM | 7.6 µM | 0.23 µM | 0.41 µM |  |  |  |  |  |  |  | 
[O-][n+]1c2ccccc2[n+]([O-])c2c(O)cccc21 | > 100 µM | 79 µM | > 100 µM | 12 µM | 11 µM |  |  |  |  |  |  |  | 
O=C(Oc1cccc2c1[n+]([O-])c1cccc(O)c1[n+]2[O-])N1CCCC1 | 12 µM | 9.6 µM | 15 µM | 0.79 µM | 0.86 µM |  |  | > 15 | > 15 |  |  |  | 
COc1cccc2c1[n+]([O-])c1cccc(OC(=O)N(C)C)c1[n+]2[O-] | 35 µM | 22 µM | 29 µM | 1.7 µM | 1.9 µM |  |  | > 15 | > 15 |  |  |  | 
CC(C)(C)C(=O)Oc1cccc2c1[n+]([O-])c1cccc(OC(=O)C(C)(C)C)c1[n+]2[O-] | > 25 µM |  |  | 8.9 µM | 11 µM |  |  |  |  |  |  |  | 

SMILES | EC50 (H9c2 [1]) | EC50 (NRK [2]) | EC50 (NRK [3]) | EC50 (MOLM-13 [4]) | EC50 (MOLM-13 [5]) | selectivity ratio [6] | selectivity ratio [7] | selectivity ratio [8] | selectivity ratio [9] | solubility [10] | EC50 (NRK [11]) | EC50 (H9c2 [12]) | EC50 (NRK [13])
CCOC(=O)COc1cccc2c1[n+]([O-])c1ccccc1[n+]2[O-] | 20 µM | 26 µM | 25 µM | 1.7 µM | 1.5 µM |  |  |  |  |  |  |  | 
[O-][n+]1c2cc3ccccc3cc2[n+]([O-])c2c(O)cccc21 |  |  |  | > 10 µM |  |  |  |  |  | Insoluble |  |  | 
CCOC(=O)COc1cccc2c1[n+]([O-])c1cc(Cl)c(Cl)cc1[n+]2[O-] | 1.3 µM | 3.1 µM | 4.7 µM | 0.38 µM | 0.41 µM |  |  |  |  |  |  |  | 
CN(C)C(=O)Oc1cccc2c1[n+]([O-])c1cccc(O)c1[n+]2[O-] | 64 µM | 49 µM | 62 µM | 0.7 µM | 0.89 µM |  |  | > 15 | > 15 |  |  |  | 
COc1cccc2c1[n+]([O-])c1cccc(OC(=O)N3CCN(C)CC3)c1[n+]2[O-] | 26 µM | 26 µM | 39 µM | 0.98 µM | 1 µM |  |  | > 15 | > 15 |  |  |  | 
CCCCC(=O)Oc1cccc2c1[n+]([O-])c1cccc(OC(=O)CCCC)c1[n+]2[O-] | > 25 µM |  |  | 22 µM | 36 µM |  |  |  |  |  |  |  | 
CCN(CC)C(=O)COc1cccc2c1[n+]([O-])c1ccccc1[n+]2[O-] | 23 µM | 13 µM | 16 µM | 1.4 µM | 1.2 µM |  |  |  |  |  |  |  | 
Cc1c(C)[n+]([O-])c2c(O)cccc2[n+]1[O-] |  |  |  | > 200 µM | > 200 µM |  |  |  |  |  |  |  | 
CCOC(=O)Oc1cccc2c1[n+]([O-])c1cccc(O)c1[n+]2[O-] | > 100 µM |  |  | 66 µM | 50 µM |  |  |  |  |  |  |  | 
CN(C)C(=O)Oc1cccc2c1[n+]([O-])c1ccccc1[n+]2[O-] | 16 µM | 19 µM | 25 µM | 2.1 µM | 1.3 µM |  |  |  |  |  |  |  | 
O=C(Oc1cccc2c1[n+]([O-])c1ccccc1[n+]2[O-])N1CCCC1 | 13 µM | 18 µM | 21 µM | 1.2 µM | 1.5 µM |  |  |  |  |  |  |  | 
CCOC(=O)COc1cccc2c1[n+]([O-])c1cc(C)c(C)cc1[n+]2[O-] | > 100 µM |  | > 100 µM | 6.3 µM | 8.3 µM |  |  |  |  |  |  |  | 
Cc1c(C)[n+]([O-])c2c(OC(=O)N3CCN(C)CC3)cccc2[n+]1[O-] |  |  |  | > 200 µM | > 200 µM |  |  |  |  |  |  |  | 
Cc1c(C)[n+]([O-])c2c(OC(=O)N3CCOCC3)cccc2[n+]1[O-] |  |  |  | > 200 µM | > 200 µM |  |  |  |  |  |  |  | 
COc1cccc2c1[n+]([O-])c1cccc(OC(=O)N3CCCC3)c1[n+]2[O-] | 35 µM | 32 µM | 35 µM | 1.8 µM | 2 µM |  |  | > 15 | > 15 |  |  |  | 
CN1CCN(C(=O)Oc2cccc3c2[n+]([O-])c2ccccc2[n+]3[O-])CC1 | 36 µM | 25 µM | 37 µM | 1.9 µM | 1.5 µM |  |  |  |  |  |  |  | 
Nc1n[n+]([O-])c2ccccc2[n+]1[O-] [TIRAPAZAMINE] |  |  |  |  |  |  |  |  |  |  | 35 µM | > 100 µM | > 100 µM
